Measured values published in patent US20260199350A1, “FLAVONES, QUINOLINONES, QUINAZOLINONES, AND AURONES, AND USES IN CK2-MEDIATED DISEASES” (Salk Institute for Biological Studies, priority 2022, published 2026).
Like-named read-outs stand apart in the source and are kept apart here.

Tests used:
[1] = test system: IL-6 secretion; assay: IL-6 secretion assay in astrocytes (Promega Lumit IL-6 kit); assay type: cell-based, human; conditions: Homo sapiens, Astrocyte; astrocytes stimulated with IL1-β, after 5 hours; read-out: IC50, secretion of IL-6
Description: IL-6 secretion assay. HCAs were plated at 20,000 cells per well in white clear bottom 96-well plates. Two to three days later, media was removed and replaced with media containing 10 ng/mL IL1B and compound dilution series. Five hours later, plates were processed using the Lumit IL-6 Assay Kit (Promega W6030) according to the manufacturer's instructions.
• ^1Radiometric kinase assay from Eurofins. Performed in astrocytes with a Promega Lumit IL-6 kit. A series of halogenated flavones was generated and assayed (Table 3).

[2] = target: T1, CK2A2 (Homo sapiens, UniProt P19784); assay: Radiometric kinase assay (Eurofins), CK2A2; assay type: biochemical; conditions: read-out: CK2A2 RAD IC50
T1 construct: purchased Eurofins
T1 sequence (P19784 whole entry): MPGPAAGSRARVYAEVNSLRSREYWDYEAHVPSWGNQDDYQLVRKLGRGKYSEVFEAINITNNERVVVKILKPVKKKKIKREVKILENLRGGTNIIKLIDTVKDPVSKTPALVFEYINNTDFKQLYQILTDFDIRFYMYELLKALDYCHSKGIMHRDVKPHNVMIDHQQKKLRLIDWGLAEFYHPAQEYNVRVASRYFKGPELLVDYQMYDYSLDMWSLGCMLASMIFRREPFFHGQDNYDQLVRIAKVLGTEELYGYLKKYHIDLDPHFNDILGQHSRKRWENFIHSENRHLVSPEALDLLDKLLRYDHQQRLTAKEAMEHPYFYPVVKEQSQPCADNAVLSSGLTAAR
Text: (§1) • ^1Radiometric kinase assay from Eurofins. Performed in astrocytes with a Promega Lumit IL-6 kit.

[3] = target: T2, CK2A1 (Homo sapiens, UniProt P68400); assay: Radiometric kinase assay (Eurofins), CK2A1; assay type: biochemical; conditions: read-out: CK2A1 RAD IC50
T2 construct: purchased Eurofins
T2 sequence (P68400 whole entry): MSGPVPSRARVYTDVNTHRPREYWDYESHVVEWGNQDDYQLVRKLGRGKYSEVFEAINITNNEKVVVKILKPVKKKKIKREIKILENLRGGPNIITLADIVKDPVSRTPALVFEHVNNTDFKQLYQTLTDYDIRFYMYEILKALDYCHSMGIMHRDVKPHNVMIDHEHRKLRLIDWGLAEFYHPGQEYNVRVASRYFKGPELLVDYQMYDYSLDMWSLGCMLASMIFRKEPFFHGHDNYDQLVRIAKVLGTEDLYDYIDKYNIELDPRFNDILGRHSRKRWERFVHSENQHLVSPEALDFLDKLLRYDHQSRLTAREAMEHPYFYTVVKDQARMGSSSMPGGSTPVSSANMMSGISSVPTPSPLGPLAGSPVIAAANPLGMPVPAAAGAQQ
Text: FIGS. 4A-4F characterize flavones for in vitro and in-cell CK2 inhibition. […] Representative of two independent experiments. […] Nonlinear fit was used to calculate IC50. […] Nonlinear fit was used to calculate IC50. […] Nonlinear fit was used to calculate IC50. […] Normalized to DMSO, data are representative of three independent experiments.
as §1

## O=C(O)c1ccc2c(c1)nc(Nc1cccc(Cl)c1)c1ccncc12 [CX-4945, silmitasertib, reference compound]
[1]
  IC50: 315 nM

## O=c1[nH]c(-c2ccc(O)c(Cl)n2)nc2c(Cl)cc(Cl)cc12 [Compound 963A]
[2]; Table 9
  IC50: 62 nM
[3]; Table 9
  IC50: 176 nM

## O=c1[nH]c(-c2ccc(O)c(Cl)n2)nc2c(Br)cccc12 [Compound 964A]
[2]; Table 9
  IC50: 137 nM
[3]; Table 9
  IC50: 155 nM

## O=c1cc(-c2ccc(O)c(O)c2)oc2c(Br)cc(Br)cc12 [Compound 1004A]
[2]; Table 5
  IC50: 803 nM
[3]; Table 5
  IC50: 845 nM

## O=c1[nH]c(-c2cc(Br)c(O)cn2)nc2c(Br)cc(Br)cc12 [Compound 1005A]
[2]; Table 9
  IC50: 53 nM
[3]; Table 9
  IC50: 94 nM

## O=c1[nH]c(-c2cc(Br)c(O)cn2)nc2c(Cl)cc(Cl)cc12 [Compound 1006A]
[2]; Table 9
  IC50: 85 nM
[3]; Table 9
  IC50: 182 nM

## O=c1[nH]c(-c2cc(Br)c(O)cn2)nc2c(Br)cccc12 [Compound 1007A]
[2]; Table 9
  IC50: 327 nM
[3]; Table 9
  IC50: 380 nM

## COc1cc(-c2cc(=O)c3cc(Br)c(OC)c(Br)c3o2)ncc1O [Compound 1040A]
[2]; Table 5
  IC50: 29 nM
[3]; Table 5
  IC50: 52 nM

## COc1nc(-c2cc(=O)c3cc(Br)c(OC)c(Br)c3o2)ccc1O [Compound 1041A]
[2]; Table 5
  IC50: 1740 nM
[3]; Table 5
  IC50: 1890 nM

## COc1cc2oc(-c3ccc(O)c(OC)n3)cc(=O)c2cc1Br [Compound 1058A]
[2]; Table 5
  IC50: 1180 nM
[3]; Table 5
  IC50: 2730 nM

## COc1ccc2c(=O)cc(-c3ccc(O)c(OC)n3)oc2c1Br [Compound 1059A]
[2]; Table 5
  IC50: 251 nM
[3]; Table 5
  IC50: 185 nM

## COc1cc(-c2cc(=O)c3cc(Br)c(OC)cc3o2)ncc1O [Compound 1063B]
[2]; Table 5
  IC50: 445 nM
[3]; Table 5
  IC50: 203 nM

## COc1nc(-c2cc(=O)c3cc(Br)ccc3o2)ccc1O [Compound 1064A]
[2]; Table 5
  IC50: 167 nM
[3]; Table 5
  IC50: 124 nM

## COc1cc(-c2cc(=O)c3cc(Br)ccc3o2)ncc1O [Compound 1065A]
[2]; Table 5
  IC50: 364 nM
[3]; Table 5
  IC50: 401 nM

## O=c1cc(-c2cc(Br)c(O)cn2)[nH]c2c(Br)cc(Br)cc12 [Compound 1066A]
[2]; Table 7
  IC50: 1290 nM
[3]; Table 7
  IC50: 2700 nM

## COc1cc(-c2cc(=O)c3cc(Br)cc(Br)c3[nH]2)ncc1O [Compound 1077A]
[2]; Table 7
  IC50: > 5000 nM
[3]; Table 7
  IC50: > 5000 nM

## O=c1cc(-c2ccc(O)c(C(F)(F)F)c2)[nH]c2c(Br)cc(Br)cc12 [Compound 1095B]
[2]; Table 7
  IC50: 699 nM
[3]; Table 7
  IC50: 488 nM

## O=c1cc(-c2ccc(O)c(Cl)c2)[nH]c2c(Br)cc(Br)cc12 [Compound 1103A]
[2]; Table 7
  IC50: 71 nM
[3]; Table 7
  IC50: 141 nM

## O=C1/C(=C/c2ccc(O)c(C3CC3)c2)Oc2c(Br)cc(Br)cc21 [Compound 1131A]
[2]; Table 12
  IC50: > 5000 nM
[3]; Table 12
  IC50: > 5000 nM

## O=c1cc(-c2ccc(O)c(C3CC3)c2)oc2c(Br)cc(Br)cc12 [Compound 1132A]
[2]; Table 5
  IC50: > 5000 nM
[3]; Table 5
  IC50: > 5000 nM

## COc1c(Br)cc2c(c1Br)O/C(=C\c1ccc(O)c(C3CC3)c1)C2=O [Compound 1134A]
[2]; Table 12
  IC50: > 5000 nM
[3]; Table 12
  IC50: > 5000 nM

## COc1ccc2c(c1Br)O/C(=C\c1ccc(O)c(C3CC3)c1)C2=O [Compound 1135B]
[2]; Table 12
  IC50: > 5000 nM
[3]; Table 12
  IC50: > 5000 nM

## COc1c(Br)cc2c(=O)cc(-c3ccc(O)c(C4CC4)c3)oc2c1Br [Compound 1140A]
[2]; Table 5
  IC50: > 5000 nM
[3]; Table 5
  IC50: > 5000 nM

## O=c1cc(-c2ccc(O)c(C3CC3)c2)oc2c(Br)cccc12 [Compound 1141A]
[2]; Table 5
  IC50: 4250 nM
[3]; Table 5
  IC50: > 5000 nM

## COc1ccc2c(=O)cc(-c3ccc(O)c(C4CC4)c3)oc2c1Br [Compound 1142A]
[2]; Table 5
  IC50: 2230 nM
[3]; Table 5
  IC50: 2790 nM

## O=C1/C(=C/c2ccc(O)cn2)Oc2c(Br)cc(Br)cc21 [Compound 1143A]
[2]; Table 12
  IC50: > 5000 nM
[3]; Table 12
  IC50: > 5000 nM

## COc1nc(/C=C2\Oc3c(Br)cc(Br)cc3C2=O)ccc1O [Compound 1150A]
[2]; Table 12
  IC50: 109 nM
[3]; Table 12
  IC50: 178 nM

## COc1nc(/C=C2\Oc3c(cc(Br)c(OC)c3Br)C2=O)ccc1O [Compound 1159A]
[2]; Table 12
  IC50: 590 nM
[3]; Table 12
  IC50: 1020 nM

## COc1cc(/C=C2\Oc3c(Br)cc(Br)cc3C2=O)ncc1O [Compound 1163A]
[2]; Table 12
  IC50: 403 nM
[3]; Table 12
  IC50: 45 nM

## COc1cc(/C=C2\Oc3c(cc(Br)c(OC)c3Br)C2=O)ncc1O [Compound 1164A]
[2]; Table 12
  IC50: 331 nM
[3]; Table 12
  IC50: 120 nM

## O=C1/C(=C/c2cc(Br)c(O)cn2)Oc2c(Br)cc(Br)cc21 [Compound 1173A]
[2]; Table 12
  IC50: 30 nM
[3]; Table 12
  IC50: 60 nM

## COc1c(Br)cc2c(c1Br)O/C(=C\c1cc(Br)c(O)cn1)C2=O [Compound 1174A]
[2]; Table 12
  IC50: 27 nM
[3]; Table 12
  IC50: 86 nM
